The record followed here is paper PMC4701221, “Novel Promising Estrogenic Receptor Modulators: Cytotoxic and Estrogenic Activity of Benzanilides and Dithiobenzanilides” (PLoS ONE, 2016).

For one series, the system named is MDA-MB-231 cells. As to the kind of experiment: MTT assay, MDA-MB-231. The settings on record: for pIC50: Homo sapiens, MDA-MB-231, 72 h, estrogen independent breast adenocarcinoma, read-out: Cytotoxic activity IC50, MDA-MB-231. Format: cell-based, human. The protocol:
(§1) The cell lines used in the cytotoxicity study, besides MCF-12A, were purchased from European Collection of Cell Culture (ECACC, Salisbury, UK): HEK293 (human embryonic kidney, ATTC no. CRL-1573), A549 (Human lung carcinoma, ECACC no. 86012804), CCD39Lu (Human lung fibroblasts, ECACC no. 90110512), MCF-7 (Human breast adenocarcinoma, ECACC no. 86012803) and MDA-MB-231 (Human breast adenocarcinoma ECACC no. 92020424). Cell lines were cultured in DMEM medium without phenol red and supplemented with 10% (v/v) FBS, 1% penicillin-streptomycin and 1% L-glutamine. MCF-12A (ATTC no. […]) was purchased from American Type Culture Collection (ATCC Manassas, VA 20110 USA). MCF-12A cells were kept in 1:1 mixture of Dulbecco’s modified Eagle’s medium and Ham’s F12 medium, 20 ng/ml human epidermal growth factor, 100 ng/ml cholera toxin, 0.01 mg/ml bovine insulin, 500 ng/ml hydrocortisone and 5% horse serum. All cell lines were cultured at 37°C, in a humidified atmosphere containing 5% CO2.
(§2) Compounds were dissolved in DMSO to the final concentration of […]. A549, CCD39Lu, MCF-7, MDA-MB-231 and MCF-12A cells were seeded in 96 wells plates at density 2x10^4 cells/well and incubated overnight as described above. Subsequently, cells were treated with tested compounds at concentrations: 100 μM; 50 μM; 25μM; 12.5μM; 6 μM; 3 μM; 1.5 μM. […] Cells were incubated 72 h at 37°C in a humidified atmosphere containing 5% CO2 in the cell culture media appropriate for each cell line. Then, the medium was aspirated and 170 μl MTT solution (5mg/ml) was added to each well. Plates were incubated for 2 hours at 37°C, and then plates were centrifuged at 1200 rpm for 3 minutes. The formazan crystals were dissolved in 200 μl DMSO and plates were further agitated on a plate shaker at 300–500 rpm for 10 minutes. Absorbance at 570 nm (with reference wavelenght 650 nm) was measured using a plate reader (Biotek Instruments, Elx-800). Cell viability was calculated as a percentage relative to the control.
Background: Tetrazolium assays rely on reduction of a dye to a coloured formazan, in cell work by metabolically active cells.

For a further series, the system named is A549 cells. The series can be described thus: MTT assay, A549. The format is cell-based. As to conditions: Homo sapiens, 72 h, lung adenocarcinoma, read-out: Cytotoxic activity IC50, A549. The protocol:
as §1, §2

Another series in a line: MTT assay, MCF-12A. Format: cell-based. The settings on record: human, MCF-12A cells (non-tumorigenic breast epithelial), read-out: Cytotoxic activity IC50, MCF-12A. As to the method:
as §1, §2

The next series concerns MCF-7 cells. The series can be described thus: MTT assay, MCF-7. Format: cell-based, human. The settings on record: for pIC50: Homo sapiens, MCF7, 72 h, estrogen dependent breast adenocarcinoma, read-out: Cytotoxic activity IC50, MCF-7; for Activity in MTT assay (in words), MCF-7: 72 h. As to the method:
as §1, §2

The next series in a line: MTT assay, CCD39Lu. Format: cell-based. The settings on record: human, CCD39Lu cells (non-tumorigenic lung fibroblasts), read-out: Cytotoxic activity IC50, CCD39Lu. As to the method: as §1, §2
In another series the target is T1, human ERα receptor (Homo sapiens, UniProt P03372).
T1 construct: host or cells: HEK293
T1 sequence (P03372 1-595): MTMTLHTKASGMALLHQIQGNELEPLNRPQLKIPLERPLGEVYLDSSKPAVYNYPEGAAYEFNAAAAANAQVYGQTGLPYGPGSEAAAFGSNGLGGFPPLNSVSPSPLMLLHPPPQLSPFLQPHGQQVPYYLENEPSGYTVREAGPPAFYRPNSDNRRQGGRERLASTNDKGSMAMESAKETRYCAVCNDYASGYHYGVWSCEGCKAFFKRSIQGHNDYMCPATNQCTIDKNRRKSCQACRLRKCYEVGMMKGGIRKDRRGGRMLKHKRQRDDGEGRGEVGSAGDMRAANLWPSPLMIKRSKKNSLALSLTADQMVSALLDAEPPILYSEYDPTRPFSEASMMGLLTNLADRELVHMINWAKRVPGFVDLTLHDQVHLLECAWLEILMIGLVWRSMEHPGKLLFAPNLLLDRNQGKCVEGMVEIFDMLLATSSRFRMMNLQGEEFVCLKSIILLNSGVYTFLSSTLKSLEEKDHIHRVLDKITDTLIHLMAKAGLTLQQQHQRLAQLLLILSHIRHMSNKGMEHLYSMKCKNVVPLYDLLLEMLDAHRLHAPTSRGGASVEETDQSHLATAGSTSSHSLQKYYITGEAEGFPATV
As to the kind of experiment: Estrogen Receptor luciferase assay in HEK293 cells transfected with ERα. The settings on record: HEK293 transfected with ERα and luciferase reporter, compared with estradiol, Fig 3A/3B. Format: cell-based. The source says: To obtain a eukaryotic vector expressing only the ER-α nuclear receptor, a construct was designed by cloning a KpnI-BamHI fragment from plasmid pEGFP-C1-ERα containing the ERα coding sequence that includes a stop signal into the pEGFP-N3 plasmid (Clontech Laboratories, Palo Alto, CA) under the control of the CMV promoter. This construction was termed pEGFP-N-ERα, and although it encoded both human ERα receptor and GFP protein, only the former is expressed. For mock transfections, pEGFP-N3 plasmid was digested with BglII and NotI and religated after polishing DNA ends to remove GFP coding sequence. Plasmid sequence was confirmed by automatic sequencing. Prior to transfection, cells were seeded in 48 well plates at density of 1.5 x 10^4 cells/well and incubated for 24 h to reach a cell confluence of 80–90%. […] MCF-7 cells, which endogenously express ERα receptor, were transfected with p3xERRE/ERE-luciferase plus the pRLTK Renilla luciferase control plasmid (95:5). Firefly and Renilla luciferase activities were measured using the Dual Luciferase Assay System (Promega, Madison, WI, USA), following a standard protocol using a Sirius L luminometer (Berthold Technologies, Bad Wildbad, Germany). Data were expressed as relative changes in luciferase activity and normalized to 100%.
On the technique in general: A reporter such as luciferase makes a cellular process visible.

Each structure is given as a SMILES string. pIC50: −log10 of the molar value. Some results are limits rather than exact numbers.

What is called pIC50 is −log10 of the IC50, conventionally taken in molar units. One may read the IC50 as the midpoint of a concentration-inhibition curve.

For `COc1cc(NC(=S)c2cccc(NC(=S)c3cc(OC)c(OC)c(OC)c3)c2)cc(OC)c1OC` [Compound 20], the pIC50 in the series on MDA-MB-231 cells, with A549 cells and with MCF-7 cells was less than 4.00 each time. Further, the IC50 at 72 h is greater than 100 µM in the series “MTT assay, MCF-12A” and greater than 100 µM in the series “MTT assay, CCD39Lu”.

`COc1ccc(NC(=O)c2cc(Cl)ccc2[N+](=O)[O-])cc1` [Compound 3]: the pIC50 in the series on MDA-MB-231 cells, in the series with A549 cells and with MCF-7 cells was less than 4.00 throughout. Besides, the IC50 at 72 h is greater than 100 µM in “MTT assay, MCF-12A” and greater than 100 µM in the series “MTT assay, CCD39Lu”.

Take `COc1cc(NC(=O)c2ccccc2[N+](=O)[O-])cc(OC)c1OC` [Compound 7]: the pIC50 with MDA-MB-231 cells is less than 4.00; with A549 cells, 4.03; in the series on MCF-7 cells it was less than 4.00. For the same compound, the IC50 at 72 h in “MTT assay, MCF-12A” is greater than 100 µM; in “MTT assay, CCD39Lu”, greater than 100 µM.

`O=C(Nc1ccccc1C(=O)Nc1cc(F)c(F)c(F)c1)c1cc(F)c(F)c(F)c1` [Compound 9]: the negative logarithm of the IC50 (pIC50) in the series with MDA-MB-231 cells, in the series with A549 cells and with MCF-7 cells was less than 4.00 in each case. Besides, the IC50 at 72 h in the series “MTT assay, MCF-12A” is greater than 100 µM; in “MTT assay, CCD39Lu” it was greater than 100 µM.

Consider `COc1ccc(NC(=O)c2ccccc2NC(=O)COC(C)=O)cc1` [Compound 19], for which the negative-log IC50 (pIC50) is less than 4.00 in the series with MDA-MB-231 cells, 4.14 with A549 cells and less than 4.00 with MCF-7 cells. For the same compound, the IC50 at 72 h in the series “MTT assay, MCF-12A” was greater than 100 µM; in “MTT assay, CCD39Lu” it was 47.9 µM.

On to `COc1ccc(NC(=O)c2ccc(OC)cc2[N+](=O)[O-])cc1` [Compound 4], for which the “ER dependent transcriptional activity” value on human ERα receptor is “did not stimulate ER dependent transcriptional activity”. In addition, the negative logarithm of the IC50 (pIC50) was 4.17 with MDA-MB-231 cells, 4.52 in the series on A549 cells and 4.55 in the series with MCF-7 cells. Also, the half-maximal inhibitory concentration (IC50) at 72 h in the series “MTT assay, MCF-12A” is greater than 100 µM; in the series “MTT assay, CCD39Lu”, 48.8 µM. In addition, the “Activity in MTT assay (in words), MCF-7” value in the series on MCF-7 cells is listed as “significant activity”.

As for `O=C(Nc1cc(F)c(F)c(F)c1)c1ccccc1[N+](=O)[O-]` [Compound 8], the negative logarithm of the IC50 (pIC50) with MDA-MB-231 cells, in the series with A549 cells and in the series on MCF-7 cells was less than 4.00 throughout. Also, the IC50 at 72 h was greater than 100 µM in “MTT assay, MCF-12A” and greater than 100 µM in the series “MTT assay, CCD39Lu”.

Turning to `COc1ccc(NC(=O)c2cc(C)c(C)cc2[N+](=O)[O-])cc1` [Compound 5], the negative logarithm of the IC50 (pIC50) was 4.04 with MDA-MB-231 cells, less than 4.00 with A549 cells and less than 4.00 in the series on MCF-7 cells. The IC50 at 72 h in “MTT assay, MCF-12A” was greater than 100 µM; in “MTT assay, CCD39Lu” it was greater than 100 µM.

On to `COc1ccc(NC(=O)c2ccc(F)cc2[N+](=O)[O-])cc1` [Compound 2], for which, at human ERα receptor, the “ER dependent transcriptional activity” value is on record as “did not stimulate ER dependent transcriptional activity”. Further, the pIC50 in the series with MDA-MB-231 cells was 4.40; in the series on A549 cells, 4.32; in the series on MCF-7 cells, 4.42. Moreover, the concentration for half-maximal inhibition (IC50) at 72 h is greater than 100 µM in “MTT assay, MCF-12A” and 45.2 µM in “MTT assay, CCD39Lu”. Moreover, the “Activity in MTT assay (in words), MCF-7” value with MCF-7 cells is “significant activity”.

Regarding `O=C(Nc1cc(F)c(F)c(F)c1F)c1ccccc1NC(=O)c1cc(F)c(F)c(F)c1F` [Compound 12], at human ERα receptor, the “ER dependent transcriptional activity” value is given as “did not stimulate ER dependent transcriptional activity”. The figures for the negative-log IC50 (pIC50) in the series with MDA-MB-231 cells, with A549 cells and in the series on MCF-7 cells were 4.40, less than 4.00 and less than 4.00, respectively. Further, the half-maximal inhibitory concentration (IC50) at 72 h in the series “MTT assay, MCF-12A” was greater than 100 µM; in “MTT assay, CCD39Lu”, 61.4 µM.

`COc1cc(NC(=S)c2ccccc2NC(=S)c2cc(OC)c(OC)c(OC)c2)cc(OC)c1OC` [Compound 13]: the negative-log IC50 (pIC50) in the series with MDA-MB-231 cells, in the series on A549 cells and in the series with MCF-7 cells was less than 4.00 in each case. Also, the IC50 at 72 h in “MTT assay, MCF-12A” was greater than 100 µM; in “MTT assay, CCD39Lu” it was greater than 100 µM.

In the case of `COc1ccc(NC(=O)c2ccccc2[N+](=O)[O-])cc1` [Compound 1], the results for the negative logarithm of the IC50 (pIC50) with MDA-MB-231 cells, in the series with A549 cells and with MCF-7 cells were 4.10, 4.03 and 4.13, respectively. In addition, the IC50 at 72 h in the series “MTT assay, MCF-12A” was greater than 100 µM; in the series “MTT assay, CCD39Lu”, 96.3 µM.

On to `Fc1cc(NC(=S)c2ccccc2NC(=S)c2cc(F)c(F)c(F)c2)cc(F)c1F` [Compound 10], for which the “Toxicity/effect in MTT assay (in words), MDA-MB-231” value with MDA-MB-231 cells (72 h) is given as “significant degree of toxicity”. The negative logarithm of the IC50 (pIC50) is 6.28 in the series on MDA-MB-231 cells, 6.39 in the series on A549 cells and 6.43 in the series on MCF-7 cells. Further, the IC50 at 72 h amounted to 1.22 µM in “MTT assay, MCF-12A” and 0.76 µM in “MTT assay, CCD39Lu”. Besides, the “Activity in MTT assay (in words), MCF-7” value in the series on MCF-7 cells is reported as “significant activity”.

Turning to `COc1ccc(NC(=O)c2ccc(NC(=O)c3ccc(OC)cc3)cc2)cc1` [Compound 17], the pIC50 with MDA-MB-231 cells, in the series with A549 cells and in the series on MCF-7 cells was less than 4.00 each time. For the same compound, the IC50 at 72 h in the series “MTT assay, MCF-12A” is greater than 100 µM; in the series “MTT assay, CCD39Lu”, greater than 100 µM.

As to `COc1cc(NC(=S)c2ccc(NC(=S)c3cc(OC)c(OC)c(OC)c3)cc2)cc(OC)c1OC` [Compound 16], on human ERα receptor, the “ER dependent transcriptional activity” value is given as “did not stimulate ER dependent transcriptional activity”. Further, the pIC50 with MDA-MB-231 cells is 4.52; with A549 cells, less than 4.00; in the series with MCF-7 cells, 4.16. The half-maximal inhibitory concentration (IC50) at 72 h in “MTT assay, MCF-12A” is greater than 100 µM; in “MTT assay, CCD39Lu”, 6.48 µM.
